Test results taken from article PMC9965018, “Marine-Derived Natural Product HDYL-GQQ-495 Targets P62 to Inhibit Autophagy” (Marine Drugs, 2023).

Target: T1, P62 (P62/SQSTM1) (Homo sapiens, UniProt Q13501)
T1 construct: MBP-P62 (purified recombinant)
Assay: microscale thermophoresis (MST) with labelled MBP-P62, MBP as negative control; also induces polymerization of purified P62
Type: binding

T1 sequence (Q13501 2-440): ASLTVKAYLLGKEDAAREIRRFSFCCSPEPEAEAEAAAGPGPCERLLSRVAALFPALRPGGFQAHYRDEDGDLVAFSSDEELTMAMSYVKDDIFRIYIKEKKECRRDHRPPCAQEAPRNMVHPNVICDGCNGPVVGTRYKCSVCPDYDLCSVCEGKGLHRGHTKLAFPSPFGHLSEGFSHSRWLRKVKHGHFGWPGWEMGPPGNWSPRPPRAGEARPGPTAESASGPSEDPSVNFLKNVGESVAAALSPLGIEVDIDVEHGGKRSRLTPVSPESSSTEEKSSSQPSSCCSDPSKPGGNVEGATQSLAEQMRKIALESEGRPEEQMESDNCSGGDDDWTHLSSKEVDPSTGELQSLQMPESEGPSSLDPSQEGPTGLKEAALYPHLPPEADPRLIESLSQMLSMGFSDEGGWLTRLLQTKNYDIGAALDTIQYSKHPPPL

O=C(c1ccc(OCCN2CCCCC2)cc1)c1c(O)nc2ccc(O)c3c2c1-c1cccc(O)c1C3=O [HDYL-GQQ-495] gave a Kd of 11.2 ± 4.07 µM.
